Experimental findings from PubChem BioAssay (NCI) are described below.

Among the test systems are A498 renal; HCT-116 colon; SK-OV-3 ovarian; ACHN renal; SK-MEL-5 melanoma; SK-MEL-2 melanoma; SW-620 colon; RXF 393 renal.
Holding throughout (test): NCI-60 cell line screen, 48 h

Each structure is given as a SMILES string.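 Following 48 hours of exposure in 96-well plates, responses at five concentrations were used to interpolate endpoints linearly. Here, GI50 denotes the concentration required for 50% inhibition of growth. TGI is the concentration that stops growth completely.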 A value given as a limit tells only on which side of the number the result lay.

As to `Cc1cccc(N=Cc2ccc(N(CCC#N)S(=O)(=O)c3ccccc3)cc2C)c1`, the TGI in the assay on A498 renal, with HCT-116 colon, with SK-OV-3 ovarian, with ACHN renal, in the assay with SK-MEL-5 melanoma and with SK-MEL-2 melanoma was above 100 µM throughout. The molecule further displayed a TGI with SW-620 colon above 100 µM.
In the case of `O=S1(=O)c2cc(S(=O)(=O)n3ccnc3)ccc2NC2=NCCCN21`, the TGI in the assay with A498 renal was 62.3 µM; in the assay on HCT-116 colon, 85.8 µM; in the assay with SK-OV-3 ovarian it was 46.9 µM; in the assay with ACHN renal it was above 100 µM; in the assay on SK-MEL-5 melanoma, 49.6 µM; with SW-620 colon, 73.8 µM.
Consider `C[N+](C)(C)C1CC([N+](C)(C)C)C2c3ccccc3C21` (stereo unspecified), for which the TGI in the assay on RXF 393 renal, in the assay on A498 renal, in the assay with HCT-116 colon, in the assay on SK-OV-3 ovarian, in the assay with ACHN renal and with SK-MEL-5 melanoma was above 100 µM each time. The molecule further yielded a TGI with SW-620 colon above 100 µM.
As to `[Co].[O-]c1cccnc1C=Nc1ccccc1.[OH3+]`, the GI50 in the assay with A498 renal was above 100 µM; in the assay on HCT-116 colon it was above 100 µM; with SK-OV-3 ovarian, above 100 µM; in the assay with ACHN renal, 79.9 µM; in the assay on SK-MEL-5 melanoma it was above 100 µM; in the assay on SK-MEL-2 melanoma it was above 100 µM. Moreover, the GI50 in the assay with SW-620 colon is above 100 µM. Moreover, the TGI in the assay on A498 renal, with HCT-116 colon, in the assay on SK-OV-3 ovarian, in the assay on ACHN renal, in the assay with SK-MEL-5 melanoma and in the assay on SK-MEL-2 melanoma was above 100 µM throughout. Besides, in the assay with SW-620 colon, the TGI was above 100 µM.
As to `CCC[CH2][Sn]1([CH2]CCC)[O]CC[S]1`, the GI50 is 0.156 µM in the assay on RXF 393 renal; 1.16 µM in the assay on HCT-116 colon; 1.61 µM in the assay with SK-OV-3 ovarian; 1.03 µM in the assay with ACHN renal; 0.324 µM in the assay with SK-MEL-5 melanoma; 0.298 µM in the assay on SK-MEL-2 melanoma. Further, the GI50 in the assay on SW-620 colon was 0.268 µM. Besides, the TGI with RXF 393 renal came out at 0.332 µM; with HCT-116 colon it was 2.9 µM; with SK-OV-3 ovarian, 2.96 µM; with ACHN renal, 2.23 µM; in the assay on SK-MEL-5 melanoma it was 1.15 µM; with SK-MEL-2 melanoma, 1.01 µM. The molecule also displayed a TGI in the assay on SW-620 colon of 1.11 µM.
In the case of `CS(=O)(=O)NNS(=O)(=O)c1ccc(F)cc1`, the TGI in the assay on RXF 393 renal, in the assay on A498 renal, in the assay with HCT-116 colon, in the assay on ACHN renal, in the assay on SK-MEL-5 melanoma and in the assay on SK-MEL-2 melanoma was above 100 µM each time. Also, the TGI in the assay with SW-620 colon was above 100 µM.
Take `COc1cc(/C=C2\NC(=O)C3Cc4c(OC)c(C)c(OC)c(OC)c4C2N3C)c(OC)c(C)c1OC` (stereo unspecified): the TGI in the assay with RXF 393 renal, in the assay with A498 renal, with HCT-116 colon, in the assay on SK-OV-3 ovarian, in the assay on ACHN renal and in the assay on SK-MEL-5 melanoma was above 100 µM in each case.
Turning to `O=c1c(C(c2ccc([N+](=O)[O-])cc2)c2c(O)c3ccccc3n(-c3ccccc3)c2=O)c(O)c2ccccc2n1-c1ccccc1`, the TGI in the assay on RXF 393 renal was 40.1 µM; with HCT-116 colon it was 76.5 µM; in the assay on SK-OV-3 ovarian, above 100 µM; with ACHN renal, 72 µM; with SK-MEL-5 melanoma, 38 µM; in the assay with SK-MEL-2 melanoma, 31 µM. Moreover, the TGI in the assay with SW-620 colon came to 57.7 µM.
Consider `CC1SC2=NC3=C(c4ccccc4C3=O)C(c3ccccc3Cl)N2C1=O` (stereo unspecified), for which the TGI in the assay with A498 renal, in the assay with HCT-116 colon, in the assay on SK-OV-3 ovarian, in the assay with ACHN renal, in the assay with SK-MEL-5 melanoma and with SK-MEL-2 melanoma was above 100 µM each time. Besides, the TGI with SW-620 colon is above 100 µM.
`CNS(=O)(=O)NNS(=O)(=O)c1ccc(F)cc1`: the TGI with RXF 393 renal, in the assay with A498 renal, with HCT-116 colon, in the assay on ACHN renal, with SK-MEL-5 melanoma and in the assay with SK-MEL-2 melanoma was above 100 µM each time. In the assay with SW-620 colon, this molecule registered a TGI above 100 µM.
Turning to `COc1ccc(C[C@]23CCC(=O)N2CCc2cc(OC)c(O)cc23)cc1O`, the TGI in the assay on RXF 393 renal, with A498 renal, in the assay on HCT-116 colon, in the assay with ACHN renal, with SK-MEL-5 melanoma and in the assay with SW-620 colon was above 100 µM throughout.
On to `N#CC(C(=O)CCC(=O)Nc1cccc(C(F)(F)F)c1)c1ccccc1` (stereo unspecified), for which the TGI in the assay on RXF 393 renal, in the assay with A498 renal, in the assay with HCT-116 colon, in the assay on ACHN renal, in the assay with SK-MEL-5 melanoma and in the assay with SK-MEL-2 melanoma was above 100 µM in each case. The molecule further registered a TGI with SW-620 colon above 100 µM.
For `CCOC(=O)CNC(=O)OCc1ccccc1`, the TGI in the assay with A498 renal, in the assay with HCT-116 colon, in the assay with SK-OV-3 ovarian, with ACHN renal, in the assay on SK-MEL-2 melanoma and in the assay on SW-620 colon was above 100 µM each time.
`Cc1cc2c(=O)c(C)n[nH]c2c(C#N)c1C`: the TGI in the assay with RXF 393 renal, with HCT-116 colon, in the assay on SK-OV-3 ovarian, with ACHN renal and in the assay on SW-620 colon was above 100 µM each time.
